Assay results published in patent US20150065436A1, “INHIBITING INTERACTION BETWEEN HIF-1ALPHA AND p300/CBP WITH HYDROGEN BOND SURROGATE-BASED HELICES” (UNIVERSITY OF SOUTHERN CALIFORNIA, priority 2013, published 2015).

Test: Plasma stability and biodistribution study
Type: in vivo
Settings: 1 mg/kg intravenously, female BALB/c mice
Experimental: Plasma stability and biodistribution studies were performed in 10-week-old female BALB/c mice (Charles River) with 3 mice per time point. Briefly, HBS 1 or peptide 3 was dissolved in 70 μL of sterile PBS and administered intravenously at a dose of 1 mg/kg. Then, 1 mL of blood was collected by cardiac puncture at euthanasia at the following time points: 30 min., 1 h., 2 h., 4 h., 6 h., 8 h., 12 h., 16 h., and 24 h. after drug administration. The experiments were performed under an approved IACUC protocol at the University of Southern California.
Samples were prepared by mixing 30 μL of plasma with 20 μL of 50% MeOH and 50% aqueous 1% formic acid. The mixture was vortexed and mixed with an additional 120 μL of 0.5% formic acid in MeOH/ACN (4:6) and 20 μL of 2.0 μg/mL isoproterenol in MeOH/1% aqueous formic acid (1:1) as an internal standard. The mixture was vortexed again for 2 minutes and centrifuged at 13,000 rpm for 4 minutes. Next, 20 μL of the supernatant was transferred to a new tube and mixed with 180 μL of 50% MeOH/ACN (4:6) and 50% aqueous 1% formic acid. Standard curves were prepared by mixing the plasma from three untreated mice with 20 μL of 50% MeOH and 50% aqueous 1% formic acid prepared with HBS 1 or peptide 3 at a concentration range of 0.05-2 μg/mL.
Samples were analyzed by LC/MS/MS using an Agilent 6210 time-of-flight LC/MS system. HPLC separation was achieved using a Prevail 3u C18 100×2.1 mm column (Grace Davison, Deerfield, Ill., USA). The column temperature was maintained at 20° C. The mobile phase consisted of A (5% acetonitrile and 95% of 0.05% aqueous formic acid) and B (5% of 05% aqueous formic acid and 95% acetonitrile). The following gradient program was used: 0% B (0 min, 0.125 ml/min), 100% B (17 min, 0.125 ml/min). The total run time was 35 minutes. […]
A mouse xenograft tumor model was used to assess the in vivo efficacy of HBS 1. The relative plasma stabilities of HBS 1 and linear peptide 3 in mice were first measured. […]

Compound: CC(C)C[C@H](NC(=O)[C@H](C)NC(=O)[C@H](CCCNC(=N)N)NC(=O)[C@H](C)N1CC=CCCC(=O)N[C@@H](CCC(=O)O)C(=O)N[C@@H](CC(C)C)C1=O)C(=O)N[C@@H](CC(=O)O)C(=O)N[C@@H](CCC(N)=O)C(N)=O [HBS 1, XELA*RALDQ-NH2]
- pattern of plasma decay: bi-exponential pattern of decay
- plasma concentrations over the same time intervals (30 min to 24 h): much higher concentrations as compared to peptide 3
